The source of these data is US8791123B2, “Substituted pyrazolo[1,5-a]pyrimidine compounds as Trk kinase inhibitors” (Array Biopharma, Inc., priority 2009, dated 2014).

The target of experiment [1] is TrkA (histidine-tagged recombinant human TrkA, cytoplasmic domain) (Homo sapiens (Human), UniProt P04629). Kind of experiment: TrkA ELISA Assay. In kind it is biochemical. Particulars: Table 1; ELISA, 500 μM ATP; read-out: TrkA Enzyme IC50. The protocol: An enzyme-linked immunosorbant assay (ELISA) was used to assess TrkA kinase activity in the presence of inhibitors. Immulon 4HBX 384-well microtiter plates (Thermo part #8755) were coated with a 0.025 mg/mL solution of poly (Glu, Ala, Tyr; 6:3:1; Sigma P3899). […] The reaction mixture was removed from the plate by washing with PBS containing 0.1% (v/v) Tween 20. The phosphorylated reaction product was detected using 0.2 μg/mL of a phosphotyrosine specific monoclonal antibody (clone PY20) conjugated to horseradish peroxidase in conjunction with the TMB Peroxidase Substrate System (KPL). After the addition of 1M phosphoric acid, the chromogenic substrate color intensity was quantitated via absorbance at 450 nm.
Sequence of TrkA (histidine-tagged recombinant human TrkA, cytoplasmic domain) (P04629 440-796): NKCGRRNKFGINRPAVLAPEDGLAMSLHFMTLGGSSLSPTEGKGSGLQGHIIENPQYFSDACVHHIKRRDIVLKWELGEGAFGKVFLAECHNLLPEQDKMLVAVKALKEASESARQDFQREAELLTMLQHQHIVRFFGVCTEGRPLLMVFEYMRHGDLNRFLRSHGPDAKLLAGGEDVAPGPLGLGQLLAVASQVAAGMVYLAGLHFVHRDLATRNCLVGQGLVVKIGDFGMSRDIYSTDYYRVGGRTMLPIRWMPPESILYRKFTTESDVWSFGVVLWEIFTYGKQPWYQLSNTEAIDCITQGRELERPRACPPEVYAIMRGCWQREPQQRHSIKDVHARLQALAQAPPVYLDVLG

Experiment [2] deals with Human Jak2 kinase domain (Homo sapiens (Human), UniProt O60674). In words: Jak2 Inhibition Assay (Omnia kinase assay). Type of experiment: biochemical. The following applies: Table 1; for pIC50: 500 μM ATP, >1000 nM when >50% inhibition not observed at 1000 nM, read-out: Jak2 Enzyme IC50; for Jak2 Enzyme (% inhibition at 1000 nM): 1000 nM test compound. The protocol: The assays described in Examples C, D, E and F for the determination of JAK1, JAK2, JAK3 and Tyk2 kinase activity, respectively, utilized the Omnia® Kinase fluorescence peptide substrate-based technology (Invitrogen). […] The reactions were therefore read at excitation 360 nm and emission was measured at 485 nm every 50 seconds for 45 minutes using a PerkinElmer EnVision Multilabel Plate Reader.
Sequence of Human Jak2 kinase domain (O60674 808-1132): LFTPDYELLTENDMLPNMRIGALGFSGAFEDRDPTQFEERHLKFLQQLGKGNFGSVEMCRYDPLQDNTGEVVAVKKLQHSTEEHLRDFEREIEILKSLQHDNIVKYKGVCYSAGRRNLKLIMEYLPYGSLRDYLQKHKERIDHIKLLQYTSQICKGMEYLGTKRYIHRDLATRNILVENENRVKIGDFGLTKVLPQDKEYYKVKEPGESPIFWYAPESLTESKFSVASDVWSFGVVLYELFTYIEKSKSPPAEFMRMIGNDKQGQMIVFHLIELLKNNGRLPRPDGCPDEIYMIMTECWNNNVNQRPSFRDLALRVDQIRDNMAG
The final buffer conditions for each of the JAK1, JAK2, JAK3 and Tyk2 assays were as follows: 25 mM HEPES, pH 7.4, 10 mM MgCl2, 0.01% Triton X-100 and 1 mM DTT.
Two-μL aliquots of these were transferred to a fresh plate for a ten-fold intermediate dilution with assay buffer. Five-μL aliquots of the diluted compounds were then transferred to 20-μL of assay mixtures described in Examples C, D, E and F for a final concentration of DMSO of 2%. […] For each plate, percent of control (POC) values were calculated for each well according to the following equation:
[formula] • where • Xmax=Average Uninhibited Controls • Xmin=Average Background IC50's were estimated from the POC's using a standard 4-parameter logistic model:
[formula] • where • A=Minimum Y (Bottom Asymptote) • B=Maximum Y (Top Asymptote) • C=EC50 • D=Slope Factor • X=Compound Concentration (nM) • Y=POC
The IC50 is defined as the concentration of inhibitor at which the POC equals 50 for the fitted curve.
Compounds of Formula I were screened for their ability to inhibit Jak2 using the general enzyme inhibition assay method, in which the assay mixture contained 500 μM ATP, 10 μM Omnia® Y7 peptide (Catalog # IVGN KNZ3071C, Invitrogen Corporation, Carlsbad, Calif.) and 4 nM Jak2 in a total volume of 20 μL. Human Jak2 kinase domain comprising amino acids 808-1132 was purchased from Invitrogen Corporation, Carlsbad, Calif. (catalog # IVGN PV4210).

pIC50: −log10 of the molar value.

A word on the pIC50: it is the negative decadic logarithm of the IC50, by convention in mol/L. In the case of `O=C(N[C@H]1CCC[C@@H]1O)c1cnn2ccc(N3CCC[C@@H]3c3cncc(F)c3)nc12` [Example 103, 5-((R)-2-(5-fluoropyridin-3-yl)pyrrolidin-1-yl)-N-((1S,2S)-2-hydroxycyclopentyl)pyrazolo[1,5-a]pyrimidine-3-carboxamide], the results for the negative logarithm of the IC50 (pIC50) in experiment [1] and in experiment [2] were 7.06 and below 6.00, respectively.

Regarding `O=C(NC[C@@H](O)CO)c1cnn2ccc(N3CCC[C@@H]3c3cc(F)ccc3C(F)(F)F)nc12` [Example 63, N—((R)-2,3-dihydroxypropyl)-5-((R)-2-(5-fluoro-2-(trifluoromethyl)phenyl)pyrrolidin-1-yl)pyrazolo[1,5-a]pyrimidine-3-carboxamide], the negative logarithm of the IC50 (pIC50) was 8.34 in experiment [1] and below 6.00 in experiment [2].

As to `CC(C)(C)NC(=O)c1cnn2ccc(N3CCC[C@@H]3c3cncc(F)c3)nc12` [Example 53, (R)—N-tert-butyl-5-(2-(5-fluoropyridin-3-yl)pyrrolidin-1-yl)pyrazolo[1,5-a]pyrimidine-3-carboxamide], the pIC50 in experiment [1] is 7.98; in experiment [2], below 6.00.

Regarding `C[C@@H](CO)NC(=O)c1cnn2ccc(N3CCC[C@@H]3c3cc(F)ccc3F)nc12` [Example 177, 5-((R)-2-(2,5-difluorophenyl)pyrrolidin-1-yl)-N-((S)-1-hydroxypropan-2-yl)pyrazolo[1,5-a]pyrimidine-3-carboxamide], the negative-log IC50 (pIC50) was 8.74 in experiment [1] and below 6.00 in experiment [2].

Take `O=C(NC1(CO)CC1)c1cnn2ccc(N3CCC[C@@H]3c3cncc(F)c3)nc12` [Example 107, (R)-5-(2-(5-fluoropyridin-3-yl)pyrrolidin-1-yl)-N-(1-(hydroxymethyl)cyclopropyl)pyrazolo[1,5-a]pyrimidine-3-carboxamide]: the negative logarithm of the IC50 (pIC50) in experiment [1] is 7.79; in experiment [2] it was below 6.00.

For `O=C(N[C@@H]1CCC[C@@H]1O)c1cnn2ccc(N3CCC[C@@H]3c3cncc(F)c3)nc12` [Example 135, 5-((R)-2-(5-fluoropyridin-3-yl)pyrrolidin-1-yl)-N-((1R,2S)-2-hydroxycyclopentyl)pyrazolo[1,5-a]pyrimidine-3-carboxamide], the pIC50 in experiment [1] is 6.85; in experiment [2], below 6.00.

With `Cc1ncc(F)cc1[C@H]1CCCN1c1ccn2ncc(C(=O)N[C@H]3CC[C@H](O)C3)c2n1` [Example 196, 5-((R)-2-(5-fluoro-2-methylpyridin-3-yl)pyrrolidin-1-yl)-N-((1S,3S)-3-hydroxycyclopentyl)pyrazolo[1,5-a]pyrimidine-3-carboxamide], the negative logarithm of the IC50 (pIC50) is 8.17 in experiment [1] and below 6.00 in experiment [2].

With `COc1ncc(F)cc1[C@H]1CCCN1c1ccn2ncc(C(=O)NCCCO)c2n1` [Example 148, (R)-5-(2-(5-fluoro-2-methoxypyridin-3-yl)pyrrolidin-1-yl)-N-(3-hydroxypropyl)pyrazolo[1,5-a]pyrimidine-3-carboxamide], the negative logarithm of the IC50 (pIC50) is 8.96 in experiment [1] and below 6.00 in experiment [2].

Take `O=C(NC[C@H](O)CO)c1cnn2ccc(N3CCC[C@@H]3c3cc(F)ccc3F)nc12` [Example 29, 5-((R)-2-(2,5-difluorophenyl)pyrrolidin-1-yl)-N—((S)-2,3-dihydroxypropyl)pyrazolo[1,5-a]pyrimidine-3-carboxamide]: the pIC50 in experiment [1] was 8.89; in experiment [2], below 6.00.

As to `CC(C)(C)NC(=O)c1cnn2ccc(N3CCC[C@@H]3c3cc(F)ccc3F)nc12` [Example 1, (R)—N-tert-butyl-5-(2-(2,5-difluorophenyl)pyrrolidin-1-yl)pyrazolo[1,5-a]pyrimidine-3-carboxamide], the negative logarithm of the IC50 (pIC50) in experiment [1] is 9.15; in experiment [2] it was below 6.00.

Regarding `O=C(NC1(CO)CC1)c1cnn2ccc(N3CCC[C@@H]3c3cc(F)ccc3F)nc12` [Example 16, (R)-5-(2-(2,5-difluorophenyl)pyrrolidin-1-yl)-N-(1-(hydroxymethyl)cyclopropyl)pyrazolo[1,5-a]pyrimidine-3-carboxamide], the negative logarithm of the IC50 (pIC50) in experiment [1] is 9.05; in experiment [2], below 6.00.

With `O=C(N[C@@H]1CCCC[C@H]1O)c1cnn2ccc(N3CCC[C@@H]3c3cncc(F)c3)nc12` [Example 136, 5-((R)-2-(5-fluoropyridin-3-yl)pyrrolidin-1-yl)-N-((1R,2R)-2-hydroxycyclohexyl)pyrazolo[1,5-a]pyrimidine-3-carboxamide], the pIC50 in experiment [1] was 7.58; in experiment [2], below 6.00.

For the molecule `O=C(N[C@H]1CC[C@@H](O)CC1)c1cnn2ccc(N3CCC[C@@H]3c3cncc(F)c3)nc12` [Example 100, 5-((R)-2-(5-fluoropyridin-3-yl)pyrrolidin-1-yl)-N-((cis)-4-hydroxycyclohexyl)pyrazolo[1,5-a]pyrimidine-3-carboxamide], the “Jak2 Enzyme (% inhibition at 1000 nM)” value in experiment [2] is on record as “(13.8) %”.

For `COc1ncc(F)cc1[C@H]1CCCN1c1ccn2ncc(C(=O)N3CC(O)C3)c2n1` [Example 139, (R)-(5-(2-(5-fluoro-2-methoxypyridin-3-yl)pyrrolidin-1-yl)pyrazolo[1,5-a]pyrimidin-3-yl)(3-hydroxyazetidin-1-yl)methanone], the negative-log IC50 (pIC50) in experiment [1] was 7.49; in experiment [2], below 6.00.

In the case of `NC(=O)c1cnn2ccc(N3CCC[C@@H]3c3cc(F)cc(OCCN4CCOCC4)c3)nc12` [Example 76, (R)-5-(2-(3-fluoro-5-(2-morpholinoethoxy)phenyl)pyrrolidin-1-yl)pyrazolo[1,5-a]pyrimidine-3-carboxamide], the negative-log IC50 (pIC50) in experiment [1] is 7.05; in experiment [2], below 6.00.

As for `COCCOc1cc(F)cc([C@H]2CCCN2c2ccn3ncc(C(=O)NC4CC4)c3n2)c1` [Example 77, (R)—N-cyclopropyl-5-(2-(3-fluoro-5-(2-methoxyethoxy)phenyl)pyrrolidin-1-yl)pyrazolo[1,5-a]pyrimidine-3-carboxamide], the pIC50 in experiment [1] is 8.27; in experiment [2] it was below 6.00.

Consider `O=C(NCCN1CCC(O)CC1)c1cnn2ccc(N3CCC[C@@H]3c3cc(F)ccc3F)nc12` [Example 170, 5-((R)-2-(2,5-difluorophenyl)pyrrolidin-1-yl)-N-(2-(4-hydroxypiperidin-1-yl)ethyl)pyrazolo[1,5-a]pyrimidine-3-carboxamide], for which the pIC50 in experiment [2] is below 6.00.

Take `COc1ncc(F)cc1[C@H]1CCCN1c1ccn2ncc(C(=O)NC[C@@H](C)O)c2n1` [Example 157, 5-((R)-2-(5-fluoro-2-methoxypyridin-3-yl)pyrrolidin-1-yl)-N-((R)-2-hydroxypropyl)pyrazolo[1,5-a]pyrimidine-3-carboxamide]: the results for the pIC50 in experiment [1] and in experiment [2] were 8.55 and below 6.00, respectively.

Take `COc1ncc(F)cc1[C@H]1CCCN1c1ccn2ncc(C(=O)Nc3cc(C)n[nH]3)c2n1` [Example 240, (R)-5-(2-(5-fluoro-2-methoxypyridin-3-yl)pyrrolidin-1-yl)-N-(3-methyl-1H-pyrazol-5-yl)pyrazolo[1,5-a]pyrimidine-3-carboxamide]: in experiment [1], the negative logarithm of the IC50 (pIC50) was 7.95.

Regarding `COc1ncc(F)cc1[C@H]1CCCN1c1ccn2ncc(C(=O)Nc3cc(C4CC4)n[nH]3)c2n1` [Example 242, (R)-N-(3-cyclopropyl-1H-pyrazol-5-yl)-5-(2-(5-fluoro-2-methoxypyridin-3-yl)pyrrolidin-1-yl)pyrazolo[1,5-a]pyrimidine-3-carboxamide], the pIC50 in experiment [1] was 8.05.

As for `COc1ncc(F)cc1[C@H]1CCCN1c1ccn2ncc(C(=O)Nc3ccn(C)n3)c2n1` [Example 241, (R)-5-(2-(5-fluoro-2-methoxypyridin-3-yl)pyrrolidin-1-yl)-N-(1-methyl-1H-pyrazol-3-yl)pyrazolo[1,5-a]pyrimidine-3-carboxamide], the pIC50 in experiment [1] is 7.66.

As for `COc1ncc(F)cc1[C@H]1CCCN1c1ccn2ncc(C(=O)Nc3ccn(C(C)C)n3)c2n1` [Example 244, (R)-5-(2-(5-fluoro-2-methoxypyridin-3-yl)pyrrolidin-1-yl)-N-(1-isopropyl-1H-pyrazol-3-yl)pyrazolo[1,5-a]pyrimidine-3-carboxamide], in experiment [1], the pIC50 was 7.42.

For the molecule `Cc1ncc(F)cc1[C@H]1CCCN1c1ccn2ncc(C(=O)N[C@H]3CC[C@@H](O)CC3)c2n1` [Example 195, 5-((R)-2-(5-fluoro-2-methylpyridin-3-yl)pyrrolidin-1-yl)-N-((cis)-4-hydroxycyclohexyl)pyrazolo[1,5-a]pyrimidine-3-carboxamide], the “Jak2 Enzyme (% inhibition at 1000 nM)” value in experiment [2] was “(16.2) %”.
